In US3933838A, “5-Substituted 2-amino-4-arylthiazoles” (Instituto Luso Farmaco d'Italia S.r.l., priority 1972, dated 1976):

Assays:
LD50 mice = settings: mouse, in vivo
adult rats [1] = experiment: anti-inflammatory action, carragenin oedema test in rats; type: in vivo; settings: for ED50: Rattus norvegicus, read-out: anti-inflammatory action rats ED50, carrageenin oedema
Description: (§1) The anti-inflammatory action has been studied in adult rats by using the carragenin oedema test (Proc. Soc. exp. Biol. Med. 1962, 111 : 544) and the granuloma from an extraneous substance (J. Amer. Pharm. Ass., Sci. Ed. 1957, 46 : 515).
(§2) Whenever possible the ED50 values have been calculated.

mice [2] = experiment: analgesic action, tail clip, mice; type: in vivo; settings: oral
Description: (§3) The analgesic action has been assessed in rats (Arch. int. Pharmacodyn. 1957, 111 : 409) and in mice (Boll. Chim. Farm. 1968, 107 : 29), the antipyretic action in rats (J. Pharmacol. exp. Ther. 1963, 141 : 369); and the anti-cough action in guinea pigs made to inhale 4% ammonia.
as §2

guinea pigs = experiment: anti-cough action in guinea pigs made to inhale 4% ammonia; type: in vivo; settings: intraperitoneal
Description: as §3, §2

mice [3] = experiment: analgesic action, stretching acetic acid, mice; type: in vivo; settings: oral; for ED50: Mus musculus
Description: as §3, §2

rats [4] = experiment: anti-ulcer action in rats kept without food for 24 hours and motionless for 4 hours; type: in vivo; settings: 10 mg/kg intraperitoneal
Method: The anti-ulcer property has been studied in rats kept without food for 24 hours and motionless for 4 hours (Therapie 1960, 15 : 1096).

rats [5] = experiment: antipyretic action in rats; type: in vivo; settings: oral
Description: as §3, §2

adult rats [6] = experiment: anti-inflammatory action, granuloma from an extraneous substance in rats; type: in vivo; settings: Rattus norvegicus, 168 h; oral × 7 days
Description: as §1, §2

rats [7] = experiment: analgesic action, Randall Selitto, rats; type: in vivo; settings: oral; for ED50: Rattus norvegicus
Description: as §3, §2

LD50 rats = type: in vivo; settings: rat, in vivo
rats [8] = experiment: LD50 rats; type: in vivo; settings: oral
[9] = intraperitoneal, 200 mg/kg maximum dose

In the case of `O=C(O)Cc1sc(NC(=O)Nc2ccccc2)nc1-c1ccc(Cl)cc1` [LR 364, [2-(phenylamino-carbonylamino)-4-p-chlorophenyl-thiazol-5-yl]-acetic acid], the LD50 (LD50 mice; ip, intraperitoneal) was over 1000 mg/kg, the “carrageenin oedema, effect at maximum dose administered” value (“carrageenin oedema, effect” for short) (adult rats [1]; [9]) was “.phi” and the “tail clip, effect at maximum dose administered” value (shortened to “tail clip, effect”) (mice [2]; 200 mg/kg maximum dose) was “.phi”. The “anti-coughing action, effect at maximum dose administered” value (shortened to “anti-coughing action, effect”) (guinea pigs; 200 mg/kg maximum dose) was “.phi”, the “stretching acetic acid, effect at maximum dose administered” value (from here on “stretching acetic acid, effect”) (mice [3]; 200 mg/kg maximum dose) was 31% and the “anti-ulcer action, protected rats in %” value (rats [4]) was 30%. For the same compound, the “anti-ulcer action, reduction in number of ulcers in %” value (“anti-ulcer action, reduction … in %” for short) (rats [4]) was 59%.
With `CCN(CC)CCNC(=O)Cc1sc(N)nc1-c1ccc(Cl)cc1` [LR 450, (2-amino-4-p-chlorophenyl-thiazol-5-yl)-N-(N',N' diethylaminoethyl)-acetamide] the “anti-pyretic action, effect at maximum dose administered” value (from here on “anti-pyretic action, effect”) (rats [5]; 100 mg/kg maximum dose) was 38%, the LD50 (LD50 mice; ip, intraperitoneal) was 43 mg/kg and the LD50 (LD50 mice; oral) was 238 mg/kg. The ED50 (adult rats [6]) was 100 mg/kg, the “carrageenin oedema, effect” value (adult rats [1]; intraperitoneal, 6 mg/kg maximum dose) was 36% and the “carrageenin oedema, effect” value (adult rats [1]; oral, 100 mg/kg maximum dose) was 35%. The “tail clip, effect” value (mice [2]; 50 mg/kg maximum dose) was “.phi”, the “anti-coughing action, effect” value (guinea pigs; 12 mg/kg maximum dose) was “.phi” and the “Randall Selitto, effect at maximum dose administered” value (rats [7]; 100 mg/kg maximum dose) was 18%. For the same compound, the “stretching acetic acid, effect” value (mice [3]; 100 mg/kg maximum dose) was 27%, the “anti-ulcer action, protected rats in %” value (rats [4]) was 65% and the “anti-ulcer action, reduction … in %” value (rats [4]) was 69%. It also gave an LD50 (LD50 rats; ip, intraperitoneal) of 47 mg/kg and an LD50 (LD50 rats; po) of 915 mg/kg.
`CCN(CC)c1nc(-c2ccc(Cl)cc2)c(CC(=O)O)s1` [LR 407, (2-n,n-diethylamino-4-p-chlorophenyl-thiazol-5-yl)-acetic acid] gave an ED50 (rats [5]; Rattus norvegicus, read-out: anti-pyretic action rats ED50) of 73 mg/kg, an LD50 (LD50 mice; ip, intraperitoneal) of 400 mg/kg and an LD50 (LD50 mice; oral) of 1260 mg/kg. It also gave an ED50 (adult rats [6]) of 170 mg/kg, an ED50 (adult rats [1]; ip, intraperitoneal) of 60 mg/kg and an ED50 (adult rats [1]; oral) of 120 mg/kg. The ED50 (mice [2]; Mus musculus) was 48 mg/kg, the ED50 (guinea pigs; Cavia porcellus, ip, read-out: anti-coughing action guinea pigs ED50) was 34 mg/kg and the ED50 (rats [7]) was over 400 mg/kg. The ED50 (mice [3]) was 26 mg/kg, the “anti-ulcer action, reduction … in %” value (rats [4]) was 23% and the LD50 (LD50 rats; ip, intraperitoneal) was 385 mg/kg. For the same compound, the LD50 (LD50 rats; po) was over 1500 mg/kg.
With `O=C(O)Cc1sc(Nc2ccccc2)nc1-c1ccc(Cl)cc1` [LR 330, (2-phenylamino-4-p-chlorophenyl-thiazol-5-yl)-acetic acid] the “anti-pyretic action, effect” value (rats [5]; 200 mg/kg maximum dose) was “.phi”, the LD50 (LD50 mice; ip, intraperitoneal) was over 1000 mg/kg and the LD50 (LD50 mice; oral) was over 3000 mg/kg. For the same compound, the ED50 (adult rats [6]) was 400 mg/kg, the ED50 (adult rats [1]; ip, intraperitoneal) was 75 mg/kg and the ED50 (adult rats [1]; oral) was 400 mg/kg. The “tail clip, effect” value (mice [2]; 200 mg/kg maximum dose) was “.phi”, the “anti-coughing action, effect” value (guinea pigs; 200 mg/kg maximum dose) was “.phi” and the ED50 (rats [7]) was 200 mg/kg. The ED50 (mice [3]) was 75 mg/kg, the LD50 (rats [8]) was over 3000 mg/kg and the LD50 (LD50 rats; ip, intraperitoneal) was over 1000 mg/kg. It also gave an LD50 (LD50 rats; po) of over 2000 mg/kg.
In the case of `O=C(O)Cc1sc(Nc2c(Cl)cccc2Cl)nc1-c1ccccc1` [LR 396, [2-n-(2', 6'-dichlorophenyl)-amino-4-phenyl-thiazol-5-yl]-acetic acid], the LD50 (LD50 mice; ip, intraperitoneal) was over 1000 mg/kg, the “carrageenin oedema, effect” value (adult rats [1]; [9]) was “.phi” and the “stretching acetic acid, effect” value (mice [3]; 100 mg/kg maximum dose) was 26%. The “anti-ulcer action, protected rats in %” value (rats [4]) was 40% and the “anti-ulcer action, reduction … in %” value (rats [4]) was 45%.
With `Nc1nc(-c2ccc(Cl)cc2)c(CC(=O)O)s1` [LR 331, (2-amino-4-p-chlorophenyl-thiazol-5-yl)-acetic acid] the “anti-pyretic action, effect” value (rats [5]; 400 mg/kg maximum dose) was “.phi”, the LD50 (LD50 mice; ip, intraperitoneal) was 800 mg/kg and the LD50 (LD50 mice; oral) was over 5000 mg/kg. It also gave an ED50 (adult rats [6]) of 300 mg/kg, an ED50 (adult rats [1]; ip, intraperitoneal) of 140 mg/kg and an ED50 (adult rats [1]; oral) of 300 mg/kg. The “tail clip, effect” value (mice [2]; 175 mg/kg maximum dose) was “.phi”, the “anti-coughing action, effect” value (guinea pigs; 50 mg/kg maximum dose) was 17% and the “Randall Selitto, effect at maximum dose administered” value (rats [7]; 175 mg/kg maximum dose) was 15%. The ED50 (mice [3]) was 132 mg/kg, the “anti-ulcer action, protected rats in %” value (rats [4]) was 30% and the “anti-ulcer action, reduction … in %” value (rats [4]) was 52%. It also gave an LD50 (LD50 rats; ip, intraperitoneal) of 840 mg/kg and an LD50 (LD50 rats; po) of over 1000 mg/kg.
